Results: patent publication US6624188B1, “Method of treatment with compounds having retinoid-like activity and reduced skin toxicity and lacking teratogenic effects” (Allergan, Inc., priority 1992, dated 2003)
In brackets after ≈: the same amount, converted by molar mass. Read-outs that look alike come from different tables or passages of the source.

Assays:
[1] = system: female hairless mice; assay type: in vivo; conditions: for Death/Total: animals died from a group of 5; for % Weight Change: end of 14 day test or at death; for Flaking/scaling grade: scale 0 to +5
Description: Specifically, tests to determine skin toxicity were performed on certain examplary compounds in accordance with the present invention, and on certain analogous compounds which lack the R3 substituent in accordance with Formula 1, 2 or 3. A “Two Week Acute Skin Toxicity Study of Multiple Topical Applications in Female Hairless Mice” is conducted as follows: a daily dose (expressed in nanomoles) of the “test compound” is applied to the skin on the back of hairless mice (usually a test group of 5 mice for a given compound). The daily dose of the test compound is applied for 5 consecutive days, followed by two days when the test compound is not administered, and is thereafter administered again for 4 more consecutive days. On the 14th day the test animals if still alive, are sacrificed to perform certain studies and tests. In the meanwhile certain tests and observations are made on a daily basis with respect to body weight and skin condition. Skin condition is graded as “flaking/scaling” and “abrasion” on a scale of 0 to +5 where the various numbers correspond to the following observations.
Results of these tests are summarized in Table 3, where daily dose is expressed in nanomoles, weight loss of the test animals is in percentages at the end of the 14 day test period, or at the time the test animal expired, and mortality is expressed with the number of animals which died from a group of 5.

[2] = system: gestating ICR mice; assay: in vivo teratology study, single oral dose on day 11 of gestation; design: species or system mouse
Description: The methodology of the study is described as follows:
ICR mice (Ace Animals, Boyertown, Pa.) were used. Mature male and virgin female ICR mice were housed in environmentally controlled rooms and acclimatized to a 12 hour light/dark cycle (light cycle 6 A.M. to 6 P.M.) for 2 weeks prior to use. All animals were maintained on Purina Lab Chow and tap water ad libitum. A group of 3-4 females was caged with a single male of proven fertility for 4 hours. Presence of a vaginal plug immediately afterward was regarded as evidence of successful mating, and this day was designated as day 0 of gestation.
[…] All animals were killed by cervical dislocation under mild ether anesthesia on day 17 of gestation. Upon laparotomy, the fetuses were examined for external malformations and weighed; one-half of each litter was then fixed in 95% ethanol and processed for staining of the skeleton by the rapid, alizarin red-S dye method. These preparations were examined under a dissection microscope to screen for abnormalities in the axial and the appendicular skeleton. The other half of each litter was fixed in Bouin's solution and examined by freehand razor serial sectioning to screen for anomalies of the brain, face, and palate.
Differences in dose-related incidence of malformations and resorptions were assessed by computing percentages of affected conceptuses among total implantation sites. The groups were compared statistically by a method based on Student's t-tests of arcs in square root transformed percentages. Values at 0.05 probability level were considered significant. The median effective dose was calculated by logarithmic curve fitting of the dose-response data.

[3] = system: tissue transglutaminase (tTGASE) in HL-60 cells; assay: Tissue Transglutaminase Assay (tTGASE) in HL-60 Cells; assay type: cell-based; conditions: FIGS. 6-9
Description: Other assays in which the retinoid like activity of the compounds used in accordance with the invention are confirmed are the HL-60 transglutaminase induction and HL-60 differentiation assay, the procedures of which are described as follows.
HL-60 cells were grown as a suspension culture in T-162 cm^2 flasks in serum-free RPMI 1640 medium supplemented with insulin (5 μg/ml), transferrin (5 μg/ml), and selenium (3 nM). The cells (1×10^6 cells/well, in 6-well dishes) were treated with serial dilutions of test compounds in the above RPMI 1640 medium which was additionally supplemented with […] dibutyryl cyclic adenosine monophosphate, a component found to be necessary for efficient differentiation of the cells. Ethanol was used in the vehicle control cultures. After 1 days of incubation at 37° C. in a 7.5% CO2 incubator, the cells were collected in a set of tubes and pelleted by centrifugation. The cells were lyzed in a buffer containing 20 mM Tris-HCl, pH 7.5, 1 mM EDTA, and 0.5% Triton X-100. An aliquot of the cell lysate was assayed for tTGASE activity in a reaction mixture containing 20 mM Tris-HCl, pH 7.5, 5 mM CaCl2, 2 mg/ml dimethylcasein, 15 mM B-mercaptoethanol and 50 μCi/ml [2,3-^3H] putrescine dihydrochloride. The reaction was carried out for 60 minutes in a 37° C. shaking water bath. The reaction was stopped by an addition of 10% trichloroacetic acid containing 0.1% putrescein. An aliquot of the stopped reaction mixture was spotted on Whatman 3 MM filter discs. The filter discs, along with the control blank filter discs, were washed twice with 5% trichloroacetic acid containing 0.1% putrescein and twice with methanol. After drying under a heat lamp, the radioactivity in the filter discs was determined by scintillation counting. An aliquot of the cell lysates was also assayed for […] by the Bradford method (Bio-Rad). After subtracting the radioactivity from the control blank filter discs, the data were calculated and expressed as pmol/min/mg protein.
As is well understood in the art, induction of tranglutaminase activity in the just-described assay is an early marker of retinoid like activity.

[4] = system: human sebocyte cultures; assay: human sebocyte culture 3H-thymidine incorporation (DNA synthesis, anti-proliferative effect); assay type: cell-based; conditions: human sebocytes, 8 days treatment, FIG. 2
From the text: The retinoid like activity of the compounds used in accordance with the method of treatment of the present invention and of the novel compounds of the invention can be confirmed by several assay procedures. An assay involving human sebocyte cultures measures the inhibition of ^3H-thymidine into cells, and thus measures inhibition of DNA synthesis and thus an anti-proliferative effect on sebocyte (i.e. a sebostatic effect). This assay is also considered a specific assay for effectiveness of a compound as a potential anti-acne drug. The test is conducted as follows.
Face-lift or forehead reduction skins from cosmetic surgeries were used as sources of human sebaceous gland cells (sebocytes).
Isolated sebocytes were plated in type 1 collagen coated-dishes in DMEM/F12 (1:1) medium supplemented with 8% fetal bovine serum, 2% human serum, 10 ng/ml epidermal growth factor, 1 nM cholera toxin, 1 μM hydrocortisone, and penicillin/streptomycin/amphotericin B. Secondary cultures were prepared by plating Dispase dissociated cells in collagen coated 24-well plates.
Sub-confluent secondary cultures were treated with the test compounds or ethanol vehicle every 2-3 days for 8 days in the above medium from which the total serum concentration was reduced to 2% and hydrocortisone was not included. During the last 6 hours of treatment, the cultures were labeled with 2 μCi/ml ^3H-thymidine. DNA from the cells were extracted by thichoroacetic acid and perchloric acid, and assayed for radioactivity by scintillation counting and for content of DNA by the diphenylamine calorimetric method. The results were expressed as CPM/μg DNA, or as per cent of vehicle control which incorporated about 1,000-1,500 cpm/μg DNA.

[5] = system: limb bud mesenchymal cells; assay: inhibition of chondrogenesis in high-density spot cultures of limb bud mesenchymal cells; assay type: cell-based; conditions: Mus musculus; limb bud mesenchymal cell spot cultures, terminated 96 hours after plating; read-out: IC50 (concentration which inhibited chondrogenesis by 50%)
From the text: In an in vitro bioassay which measures inhibition of chondrogenesis (bone formation) in […] as a classic measure of teratogenecity the results shown in Table 2 were obtained. The assay is described as follows:
High-density “spot” cultures of limb bud mesenchymal cells were used to compare the ability of various concentrations of test drugs to suppress chondrogenic differentiation as a bioassay. Forelimb buds of mouse embryos on day 12 of gestation (54±2 somites) were dissociated in a trypsin-EDTA solution, and the resultant single-cell suspension was plated as 20-μl spots (200,000 cells/spot) on plastic culture dishes. Retinoid concentrations ranging from 0.3 ng/ml to 3 μg/ml (1 nM-10 μM) were added to the culture medium (Eagle's MEM+10% fetal bovine serum, GIBCO) 24 hours after initial plating. […]
The cultures were terminated 96 hours after plating, at which time the medium was removed and the cells were fixed for 1 hour in 10% formalin containing 0.5% cetylpyridinium chloride. The cultures were rinsed in acetic acid and stained for 1 hour in 0.5% Alcian blue solution at pH 1.0, differentiated in 3% acetic acid, and then dehydrated in ethanol and scored for chondrogenesis under the microscope. […] The number of cartilage nodules stained in the whole spot, mean number of nodules, and standard deviations were calculated for four replicate cultures per treatment. […]

[6] = pharmacokinetic study, drug concentration in maternal plasma and embryo after oral intubation; assay type: in vivo; conditions: mice, 10mg/kg dose, FIG. 1
Description: FIG. 1 is a graph showing the concentration of compound AGN 191701 in nanograms per ml, or nanograms per gram as indicated on the chart, in the plasma and embryo of mice at various times after oral intubation of a single dose of 10 mg/kg of the compound.
In contrast, the teratogenecity of prior art compound AGN 191183 is so high that even an undetectably low concentration of the drug already causes defective embryos.

[7] = single oral dose 1 mg/kg, day 11 of gestation, ICR mice
[8] = single oral dose 10 mg/kg, day 11 of gestation, ICR mice
[9] = single oral dose 100 mg/kg, day 11 of gestation, ICR mice
[10] = daily dose 75 nanomoles topical
[11] = daily dose 124 nanomoles topical
[12] = daily dose 1240 nanomoles topical
[13] = female, ICR, mouse, in vivo, po, 1 mg/kg, 17 day of gestation
[14] = female, ICR, mouse, in vivo, po, 10 mg/kg, 17 day of gestation
[15] = female, ICR, mouse, in vivo, po, 100 mg/kg, 17 day of gestation

CCOC(=O)c1ccc(/C=C(\C)c2cc3c(cc2C)C(C)(C)CCC3(C)C)cc1 [AGN191422, Ethyl 4-[(E)-2-(5,6,7,8-Tetrahydro-3,5,5,8,8-pentamethylnaphthalen-2-yl)propen-1-yl]benzoate]
Death/Total ([1]; daily dose 60 nanomoles topical): 0/5 | Death/Total ([1]; daily dose 64 nanomoles topical): 0/5

CCOC(=O)c1ccc(/C=C(\C)c2cc(C(C)(C)C)ccc2C)cc1 [AGN191544, Ethyl 4-[(E)-2-(2-Methyl-5-tert-butylphenyl)propen-1-yl]benzoate]
Death/Total ([1]; daily dose 800 nanomoles topical): 0/5

CCOC(=O)c1ccc(/C=C(\C)c2cc3c(cc2C)OC(C)(C)CC3(C)C)cc1 [AGN191549, Ethyl 4-[(E)-2-(2,2,4,4,7-Pentamethyl-chroman-6-yl)propen-1-yl]-benzoate]
Death/Total ([1]; daily dose 300 nanomoles topical): 0/5

C/C(=C\c1ccc(C(=O)O)cc1)c1cc2c(cc1C)C(C)(C)CCC2(C)C [AGN 191440]
times less teratogenic than AGN 191183 ([2]; comparison of doses producing teratogenic effects in ICR mice): approximately 100 times | # Litters Normal [2, 7]: 5 | Teratogenic Effects % Cleft Palate [2, 7]: 13% | Teratogenic Effects % Limb Defects [2, 7]: 17% | Teratogenic Effects % Resorbed [2, 7]: 19% | # Litters Normal [2, 8]: 1 | Teratogenic Effects % Cleft Palate [2, 8]: 88% | Teratogenic Effects % Limb Defects [2, 8]: 75% | Teratogenic Effects % Resorbed [2, 8]: 2% | # Litters Normal [2, 9]: 0 | Teratogenic Effects % Resorbed [2, 9]: 100% | induction of transglutaminase activity [3]: active | Death/Total [1, 10]: 0/5 | % Weight Change [1, 10]: 3.1% | Flaking/scaling grade [1, 10]: +2 (Slight (˜25% or less)) | Death/Total [1, 11]: 0/5 | % Weight Change [1, 11]: −2.7% | Flaking/scaling grade [1, 11]: +2 (Slight (˜25% or less)) | Death/Total [1, 12]: 3/5 | % Weight Change [1, 12]: −19.5% | Flaking/scaling grade [1, 12]: +4 (Moderate (greater than ˜50%, less than ˜75%))

C/C(=C\c1ccc(C(=O)O)cc1)c1cc2c(cc1Cl)C(C)(C)CCC2(C)C [AGN 191642, 4[(E)-2-(3-Chloro-5,6,7,8-tetrahydro-5,5,8,8-tetramethylnaphthalen-2-yl)propen-1-yl]benzoic Acid]
induction of transglutaminase activity [3]: active

C/C(=C\c1ccc(C(=O)O)s1)c1cc2c(cc1C)C(C)(C)CCC2(C)C [AGN 191659, 5-[(E)-2-(5,6,7,8-Tetrahydro-3,5,5,8-pentamethylnaphthalen-2-yl)propen-1-yl]-2-thiophenecarboxylic Acid]
inhibition of 3H-thymidine incorporation (effectiveness in sebocyte assay) [4]: effective | induction of transglutaminase activity [3]: active

C/C(=C\c1cc(C(=O)O)cs1)c1cc2c(cc1C)C(C)(C)CCC2(C)C [AGN 191701, 2-[(E)-2-(5,6,7,8-Tetrahydro-3,5,5,8,8-pentamethylnaphthalen-2-yl)propen-1-yl]thiophene-4-carboxylic Acid]
times less teratogenic than AGN 191183 ([2]; female, ICR, mouse, in vivo, 17 day of gestation): approximately 10^4 times | # Litters Normal [2, 13]: 1 | Teratogenic Effects % Cleft Palate [2, 13]: 0% | Teratogenic Effects % Limb Defects [2, 13]: 0% | Teratogenic Effects % Resorbed [2, 13]: 18% | # Litters Normal [2, 14]: 3 | Teratogenic Effects % Cleft Palate [2, 14]: 0% | Teratogenic Effects % Limb Defects [2, 14]: 0% | Teratogenic Effects % Resorbed [2, 14]: 14% | # Litters Normal [2, 15]: 2 | Teratogenic Effects % Cleft Palate [2, 15]: 19% | Teratogenic Effects % Limb Defects [2, 15]: 22% | Teratogenic Effects % Resorbed [2, 15]: 2% | teratogenic effect (in words) ([2]; mouse, in vivo): very little teratogeneic effect | IC50 [5]: 19 µg/mL (≈ 51.6 µM) | concentration of the drug in the maternal plasma and in the embryo [6]: present in substantial concentration | inhibition of 3H-thymidine incorporation (effectiveness in sebocyte assay) [4]: effective | induction of transglutaminase activity [3]: active
